Results from patent US4835185A, “Immunomodulator for improving commercial performance of domestic animals” (Iowa State University Research Foundation, Inc., priority 1987, dated 1989).

How the values were obtained:
lymphocytes = test: Study of Immune Function: lymphocyte blastogenesis, cattle (experiment 3); assay type: cell-based, castrated male cattle
neutrophils = test: Neutrophil function (experiments 1 to 3); assay type: cell-based, sheep and cattle; settings: any experiment
Method: A study was conducted to determine if KIC administration can alter white blood cell function, specifically T lymphocyte function, in growing sheep and cattle. Eighteen medium-framed crossbred male lambs were used in experiment 1. Lambs were randomly assigned to either a control diet (n=10) or a diet supplemented with 1% KIC (n=8). Animals were fed ad libitum in individual cages. At 100 and 108 days of treatment, 50-ml blood samples were collected for lymphocyte and neutrophil function tests. In experiment 2, 19 intact crossbred male lambs were randomly assigned to either a saline treatment group (n=9) or a KIC treatment group (n=10). Control lambs were injected with 50 ml of a saline solution, and KIC treated lambs were injected with 50 ml of a 5% solution of KIC (sodium salt) daily (~2.5 g KIC/day). All injections were made intraperitoneally in the right posterior abdominal region after disinfection of the area. […] At the end of the 6-233k periods, 100-ml blood samples were collected from each animal, and lymphocyte and neutrophil function were evaluated. […] Lymphocytes and neutrophils were isolated, and lymphocyte blastogenesis and neutrophil function evaluated. […] Each experiment was statistically analyzed by analysis of variance. In sheep experiments, individual animals were the experimental units, whereas pen means were analyzed in the cattle experiment.

[1] = parameters: species or system pigs; settings: pig, in vivo
Description: In experiment 1, sixteen female pigs weighing 20-30 kg were used. Seven days before study, catheters were surgically placed in the right atria for blood sampling. Animals were housed in individual cages during the recovery period and had free access to water. Preceding the experiment, animals were fed twice daily a basal diet (2% of body weight per feeding). The basal diet consisted of a corn-soybean mix, adequate in all minerals and vitamins and containing approximately 14% crude protein. Test meals were formulated by additions to a basal diet. Five animals received the basal diet (control); five animals received the leucine meal, which had 2% leucine added to the basal diet; and six animals received the KIC diet, which had 2% KIC (sodium salt equivalent to 1.7% free acid) added to the basel diet. Studies were begun between 0800 and 0900 h after a 24-hr fast. Basal blood samples were taken at -20, -10 and -5 min. Animals were then offered 100 g of their respective test meal (time 0). Pigs were included in the study only if they consumed the entire meal in the first 20 min. Blood was sampled every 30 min from 120 to 240 min. Plasma was separated, Trasylol (FBA Pharmaceuticals, New York, NY) added (50 ul/ml), and plasma stored at -70 C. until analyzed.
Cortisol was measured by coated tube kits (Gammacoat, Travenol-Genetech Diagnostics, Cambridge, MA). Leucine and KIC were measured by high pressure liquid chromatography. Crystalline leucine was obtained from Sigma Chemical (St. Louis, MO) and KIC-sodium was obtained from SOBAC (Paris, France). Statistical analysis of the individual pig responses was conducted on mean plasma concentrations before the meal (-20 to 0 min) and after the meal (120 to 240 min). When the overall treatment F-value was significant, differences between individual treatments were determined using the pooled SEM and a T-test.

[2] = Laying hens: egg production and egg yolk cholesterol; assay type: in vivo, laying hens (chickens)
Method: Laying hens (69 weeks of age) were randomly assigned to either a control diet or a diet containing 0.2 wt % KIC (Na). For the next 28 days feed consumption was recorded and eggs collected. Eggs were weighed and analyzed for egg yolk cholesterol. The feed composition is shown in Table C and the results in Table D. The total protein was about 18% on a dry matter basis, and the amount of leucine was about 9% of the protein. The control diet was the same except for the omission of the KIC.

CC(C)CC(=O)C(=O)O [KIC, alpha-ketoisocaproate]
BKG: background blastogenesis (lymphocytes; Exp. 3, oral coated 0.02% KIC (control 1410)): 1550 Counts/min per 2 × 10^5 cells | PWM: pokeweed mitogen-stimulated blastogenesis (lymphocytes; Exp. 3, oral coated 0.02% KIC (control 23100)): 27100 Counts/min per 2 × 10^5 cells | PHA: phytohemagglutinin-stimulated blastogenesis (lymphocytes; Exp. 3, oral coated 0.02% KIC (control 40500)): 43200 Counts/min per 2 × 10^5 cells | ConA: concanavalin A-stimulated blastogenesis (lymphocytes; Exp. 3, oral coated 0.02% KIC (control 40900)): 48800 Counts/min per 2 × 10^5 cells | BKG: background blastogenesis (lymphocytes; Exp. 3, oral coated 0.07% KIC (control 1410)): 2080 Counts/min per 2 × 10^5 cells | PWM: pokeweed mitogen-stimulated blastogenesis (lymphocytes; Exp. 3, oral coated 0.07% KIC (control 23100)): 38000 Counts/min per 2 × 10^5 cells | PHA: phytohemagglutinin-stimulated blastogenesis (lymphocytes; Exp. 3, oral coated 0.07% KIC (control 40500)): 74300 Counts/min per 2 × 10^5 cells | ConA: concanavalin A-stimulated blastogenesis (lymphocytes; Exp. 3, oral coated 0.07% KIC (control 40900)): 75400 Counts/min per 2 × 10^5 cells | BKG: background blastogenesis (lymphocytes; Exp. 3, oral coated 0.20% KIC (control 1410)): 1690 Counts/min per 2 × 10^5 cells | PWM: pokeweed mitogen-stimulated blastogenesis (lymphocytes; Exp. 3, oral coated 0.20% KIC (control 23100)): 30500 Counts/min per 2 × 10^5 cells | PHA: phytohemagglutinin-stimulated blastogenesis (lymphocytes; Exp. 3, oral coated 0.20% KIC (control 40500)): 56900 Counts/min per 2 × 10^5 cells | ConA: concanavalin A-stimulated blastogenesis (lymphocytes; Exp. 3, oral coated 0.20% KIC (control 40900)): 54400 Counts/min per 2 × 10^5 cells | antibody-dependent cell-mediated cytotoxicity (neutrophils): did not alter | Plasma KIC, Change [1]: 56 µM | Plasma leucine, Change [1]: 182 µM | plasma leucine concentration [1]: doubling | Plasma KIC, Post ([1]; 240 min): 102 µM | Plasma leucine, Post ([1]; 240 min): 312 µM | Av. Eggs ([2]; 0.2 wt % KIC (Na), 28 days (control 1.105)): 1.233 kg./hen | Average No. Eggs/Hen ([2]; 0.2 wt % KIC (Na), 28 days (control 17.7)): 19.5 | Feed Average ([2]; 0.2 wt % KIC (Na), 28 days (control 109)): 109 gms/hen/day | Avg. yolk Cholesterol ([2]; 0.2 wt % KIC (Na), 28 days (control 1068)): 996 mg/100 gms | Av. Eggs (kg./hen), % Change ([2]; vs control): +11.1% | Average No. Eggs/Hen, % Change ([2]; vs control): +10.2% | Avg. yolk Cholesterol, % Change ([2]; vs control): -7% | Feed Average, % Change ([2]; vs control): 0%
